Measured values from patent US10544130B2, “Metallo-beta-lactamase inhibitors” (priority 2015, dated 2020).
Where two headings read alike, the source gives them in different places.

Experiments:
[1] = test system: Escherichia coli expressing NDM-1 (CLB30005, CLB30016); assay type: cell-based; details: with imipenem 1 μg/ml, 95% inhibition of bacterial growth
Method in brief: (§1)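 Growth read by absorbance after 22–24 h at 35 °C in CAMHB, with test compound alone or combined with 1 μg/ml imipenem. Inocula came from overnight 35 °C blood-agar colonies, set to a defined OD600 and diluted 1:100. Value is the inhibitor concentration giving synergy.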

[2] = test system: Pseudomonas aeruginosa PAO1 MB9798 (efflux+, IMP-1); details: ratio MITC95 PA 9798/MITC95 PA 9799; imipenem at 2 μg/mL
Method in brief: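 Isogenic PAO1 pair (efflux+ MB9798, efflux− MB9799, both IMP-1) tested by microbroth MIC with fixed imipenem and/or ceftazidime, usually at CLSI breakpoint, plus fixed class A/C inhibitor against AmpC. MBL inhibitor titrated; concentration restoring susceptibility recorded and fold difference between strains taken as efflux extent.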

[3] = test system: Serratia marcescens expressing IMP-1 (CL5741); assay type: cell-based; details: with imipenem 1 μg/ml; 95% inhibition of bacterial growth
Method in brief: as §1

Structure (SMILES)	Escherichia coli (NDM-1) MITC95 [1]	Efflux ratio [2]	also measured
NCCNS(=O)(=O)c1ccc(-c2cccc3[nH]c(C4CNC4)nc23)c(-c2nn[nH]n2)c1S(N)(=O)=O [Example 443, N1-(2-aminoethyl)-4-(2-(azetidin-3-yl)-1H-benzo[d]imidazol-4-yl)-3-(2H-tetrazol-5-yl)benzene-1,2-disulfonamide]	0.7813 µM	–	–
NS(=O)(=O)c1c(S(=O)(=O)N[C@@H]2CCNC2)ccc(-c2cccn3ccnc23)c1-c1nn[nH]n1 [Example 291, (R)-4-(imidazo[1,2-a]pyridin-8-yl)-N1-(pyrrolidin-3-yl)-3-(2H-tetrazol-5-yl)benzene-1,2-disulfonamide]	0.7813 µM	1.00	–
NCCNS(=O)(=O)c1ccc(-c2cccc3[nH]c([C@@H](N)CO)nc23)c(-c2nn[nH]n2)c1S(N)(=O)=O [Example 331, (R)-4-(2-(1-amino-2-hydroxyethyl)-1H-benzo[d]imidazol-4-yl)-N1-(2-aminoethyl)-3-(2H-tetrazol-5-yl)benzene-1,2-disulfonamide]	1.563 µM	1.00	–
NCc1nc2cc(-c3ccc(S(=O)(=O)NC[C@@H](O)CN)c(S(N)(=O)=O)c3-c3nn[nH]n3)ccc2s1 [Example 473, (S)-N1-(3-amino-2-hydroxypropyl)-4-(2-(aminomethyl)benzo[d]thiazol-5-yl)-3-(2H-tetrazol-5-yl)benzene-1,2-disulfonamide]	0.7813 µM	–	–
C[C@H](CN)NS(=O)(=O)c1ccc(-c2cccc3[nH]c(CN)nc23)c(-c2nn[nH]n2)c1S(N)(=O)=O [Example 383, (R)-4-(2-(aminomethyl)-1H-benzo[d]imidazol-4-yl)-N1-(1-aminopropan-2-yl)-3-(2H-tetrazol-5-yl)benzene-1,2-disulfonamide]	0.7813 µM	1.00	–
NCc1nc2cc(-c3ccc(S(=O)(=O)NC[C@@H](O)CN)c(S(N)(=O)=O)c3-c3nn[nH]n3)ccc2[nH]1 [Example 465, (S)-N1-(3-amino-2-hydroxypropyl)-4-(2-(aminomethyl)-1H-benzo[d]imidazol-5-yl)-3-(2H-tetrazol-5-yl)benzene-1,2-disulfonamide]	0.7813 µM	–	–
Nc1nc2c(-c3ccc(S(=O)(=O)NC[C@H]4CNCCN4)c(S(N)(=O)=O)c3-c3nn[nH]n3)cccc2[nH]1 [Example 314, (R)-4-(2-amino-1H-benzo[d]imidazol-4-yl)-N1-(piperazin-2-ylmethyl)-3-(2H-tetrazol-5-yl)benzene-1,2-disulfonamide]	0.7813 µM	1.00	–
C[C@H](CN)NS(=O)(=O)c1ccc(-c2cccn3ccnc23)c(-c2nn[nH]n2)c1S(N)(=O)=O [Example 384, (R)—N1-(1-aminopropan-2-yl)-4-(imidazo[1,2-a]pyridin-8-yl)-3-(2H-tetrazol-5-yl)benzene-1,2-disulfonamide]	1.563 µM	0.50	–
NCc1nc2c(-c3ccc(S(=O)(=O)N[C@@H]4CCNC4)c(S(N)(=O)=O)c3-c3nn[nH]n3)cccc2[nH]1 [Example 283, (R)-4-(2-(aminomethyl)-1H-benzo[d]imidazol-4-yl)-N1-(pyrrolidin-3-yl)-3-(2H-tetrazol-5-yl)benzene-1,2-disulfonamide]	0.7813 µM	1.00	–
N[C@H](CO)c1nc2c(-c3ccc(S(=O)(=O)N[C@H]4CNC[C@H]4N)c(S(N)(=O)=O)c3-c3nn[nH]n3)cccc2[nH]1 [Example 323, 4-(2-((S)-1-amino-2-hydroxyethyl)-1H-benzo[d]imidazol-4-yl)-N1-((3S,4R)-4-aminopyrrolidin-3-yl)-3-(2H-tetrazol-5-yl)benzene-1,2-disulfonamide]	1.563 µM	1.00	–
C[C@@H](N)c1nc2c(-c3ccc(S(=O)(=O)N[C@@H]4CCNC4)c(S(N)(=O)=O)c3-c3nn[nH]n3)cccc2[nH]1 [Example 273, 4-(2-((R)-1-aminoethyl)-1H-benzo[d]imidazol-4-yl)-N1-((R)-pyrrolidin-3-yl)-3-(2H-tetrazol-5-yl)benzene-1,2-disulfonamide]	1.563 µM	1.00	–
NCC(CN)NS(=O)(=O)c1ccc(-c2cccc3sc(N)nc23)c(-c2nn[nH]n2)c1S(N)(=O)=O [Example 436, 4-(2-aminobenzo[d]thiazol-4-yl)-N1-(1,3-diaminopropan-2-yl)-3-(2H-tetrazol-5-yl)benzene-1,2-disulfonamide]	0.7813 µM	–	–
NCCNS(=O)(=O)c1ccc(-c2ccc3[nH]c(CN)nc3c2)c(-c2nn[nH]n2)c1S(N)(=O)=O [Example 466, N1-(2-aminoethyl)-4-(2-(aminomethyl)-1H-benzo[d]imidazol-5-yl)-3-(2H-tetrazol-5-yl)benzene-1,2-disulfonamide]	0.7813 µM	–	–
C[C@H](CN)NS(=O)(=O)c1ccc(-c2cc(F)cc3[nH]c(N)nc23)c(-c2nn[nH]n2)c1S(N)(=O)=O [Example 396, (R)-4-(2-amino-6-fluoro-1H-benzo[d]imidazol-4-yl)-N^1-(1-aminopropan-2-yl)-3-(2H-tetrazol-5-yl)benzene-1,2-disulfonamide]	0.7813 µM	–	–
NCCNS(=O)(=O)c1ccc(-c2cccc3[nH]c([C@@H]4C[C@@H](O)CN4)nc23)c(-c2nn[nH]n2)c1S(N)(=O)=O [Example 444, N1-(2-aminoethyl)-4-(2-((2S,4R)-4-hydroxypyrrolidin-2-yl)-1H-benzo[d]imidazol-4-yl)-3-(2H-tetrazol-5-yl)benzene-1,2-disulfonamide]	1.563 µM	–	–
NCc1nc2cc(-c3ccc(S(=O)(=O)N[C@@H](CN)CO)c(S(N)(=O)=O)c3-c3nn[nH]n3)ccc2[nH]1 [Example 474, (S)-N1-(1-amino-3-hydroxypropan-2-yl)-4-(2-(aminomethyl)-1H-benzo[d]imidazol-5-yl)-3-(2H-tetrazol-5-yl)benzene-1,2-disulfonamide]	0.7813 µM	–	–
C[C@@H](CCN)NS(=O)(=O)c1ccc(-c2ccc(N)nc2)c(-c2nn[nH]n2)c1S(N)(=O)=O [Example 499, (5)-N1-(4-aminobutan-2-yl)-4-(6-aminopyridin-3-yl)-3-(1H-tetrazol-5-yl)benzene-1,2-disulfonamide]	–	–	Escherichia coli (NDM-1) MITC95 ([1]; CLB30016): 0.7813 µM
NCCNc1cc(-c2ccc(S(=O)(=O)NCCO)c(S(N)(=O)=O)c2-c2nn[nH]n2)ccn1 [Example 457, 4-(2-((2-aminoethyl)amino)pyridin-4-yl)-N1-(2-hydroxyethyl)-3-(2H-tetrazol-5-yl)benzene-1,2-disulfonamide]	1.563 µM	–	–
NCC(CN)NS(=O)(=O)c1ccc(-c2ccnc(-c3cnc(N)[nH]3)c2)c(-c2nnn[nH]2)c1S(N)(=O)=O [Example 437, 4-(2-(2-Amino-1H-imidazol-5-yl)pyridin-4-yl)-N^1-(1,3-diaminopropan-2-yl)-3-(1H-tetrazol-5-yl)benzene-1,2-disulfonamide]	0.7813 µM	–	–
NC[C@@H](CO)NS(=O)(=O)c1ccc(-c2cccc3[nH]c(N)nc23)c(-c2nnn[nH]2)c1S(N)(=O)=O [Example 426, (S)-4-(2-Amino-1H-benzo[d]imidazol-4-yl)-N^1-(1-amino-3-hydroxypropan-2-yl)-3-(1H-tetrazol-5-yl)benzene-1,2-disulfonamide]	0.3906 µM	–	–
NCCNc1cc(-c2ccc(S(=O)(=O)N[C@@H]3CCNC3)c(S(N)(=O)=O)c2-c2nn[nH]n2)ccn1 [Example 458, (R)-4-(2-((2-aminoethyl)amino)pyridin-4-yl)-N1-(pyrrolidin-3-yl)-3-(2H-tetrazol-5-yl)benzene-1,2-disulfonamide]	0.7813 µM	–	–
NCc1nc2cc(-c3ccc(S(=O)(=O)NC[C@H](O)CN)c(S(N)(=O)=O)c3-c3nn[nH]n3)ccc2[nH]1 [Example 464, (R)—N1-(3-amino-2-hydroxypropyl)-4-(2-(aminomethyl)-1H-benzo[d]imidazole-5-yl)-3-(2H-tetrazol-5-yl)benzene-1,2-disulfonamide]	0.7813 µM	–	–
NCCNS(=O)(=O)c1ccc(-c2cccc3c2CCCN3)c(-c2nn[nH]n2)c1S(N)(=O)=O [Example 455, N1-(2-Aminoethyl)-4-(1,2,3,4-tetrahydroquinolin-5-yl)-3-(2H-tetrazol-5-yl)benzene-1,2-disulfonamide]	1.563 µM	–	–
Nc1ccc2cccc(-c3ccc(S(=O)(=O)N[C@H]4CNC[C@H]4N)c(S(N)(=O)=O)c3-c3nn[nH]n3)c2n1 [Example 324, N1-((3S,4R)-4-aminopyrrolidin-3-yl)-4-(2-aminoquinolin-8-yl)-3-(1H-tetrazol-5-yl)benzene-1,2-disulfonamide]	–	1.00	Serratia marcescens (IMP-1) MITC95 [3]: 0.7813 µM
NCc1nc2cc(-c3ccc(S(=O)(=O)N[C@@H](CN)CO)c(S(N)(=O)=O)c3-c3nn[nH]n3)ccc2s1 [Example 475, (S)-N1-(1-amino-3-hydroxypropan-2-yl)-4-(2-(aminomethyl)benzo[d]thiazol-5-yl)-3-(2H-tetrazol-5-yl)benzene-1,2-disulfonamide]	0.7813 µM	–	–
